Data from patent US20030083374A1, “NAALADase inhibitors useful as pharmaceutical compounds and compositions” (priority 1998, published 2003).

System: LNCaP cells
Assay: not given
Settings: as the concentration increased; cited from earlier work

In the case of `N[C@@H](Cn1oc(=O)[nH]c1=O)C(=O)O` [quisqualic acid, reference compound], the LNCaP cell proliferation is listed as “decreased significantly”.

System: rat MCAO model of stroke
Assay: in vivo assay on brain injury following MCAO
Design: species or system Sprague-Dawley rats
Settings: 30 mg/kg IV bolus + 6 mg/kg/hr IV infusion 4 hours, 120 minutes post-occlusion
Protocol: The control group received Hepes buffered saline.
Four drug treated groups received Compound 1. For each rat, the treatment was initiated at 60 minutes post middle cerebral artery occlusion (MCAO) by an IV bolus injection which was immediately followed by IV infusion for 4 hours at rate of 0.5 ml/hr. Group 1 (n=9) received a dose of 100 mg/kg IV bolus followed by 20 mg/kg/hr IV infusion for 4 hours. Group 2 (n=11) received a dose of 30 mg/kg IV bolus followed by 6 mg/kg/hr IV infusion for 4 hours. Group 3 (n=9) received a dose of 10 mg/kg IV bolus followed by 2 mg/kg/hr IV infusion for 4 hours. Group 3 rats were also treated at 120 minutes, 180 minutes and 360 minutes post-occlusion. Group 4 (n=8) received a dose of 3 mg/kg IV bolus followed by […] IV infusion for 4 hours.
Two additional drug treated groups received 2-(3-sulfanylpropyl)pentanedioic acid. For each rat, the treatment was initiated at 120 minutes post middle cerebral artery occlusion (MCAO) by an IV bolus injection which was immediately followed by IV infusion for 4 hours at rate of 0.5 ml/hr. Group 5 received a dose of 30 mg/kg IV bolus followed by 6 mg/kg/hr IV infusion for 4 hours. Group 6 received a dose of 10 mg/kg IV bolus followed by 2 mg/kg/hr IV infusion.
Twenty two hours following the reperfusion, the rats were euthanized and their brains were removed. Seven coronal sections (2 mm thick) were taken and stained with 1% solution of 2,3,5-triphenyl-tetraxolium chloride (TTC) for 20 minutes and then fixed in 10% formalin. The anterior and posterior surface of the most rostral brain section and the posterior surface of each of the remaining 6 sections were imaged. The quantification of infarct size of each brain was obtained using a computer aided-digital imaging analysis system (LOATS). The brain regions completely lacking TTC-staining were characterized as representative of infarcted tissue. The total infarct volume for each rat was calculated by numeric integration of the respective sequential brain areas.
Male Sprague-Dawley rats (260-320 g) were used. They were individually housed and allowed free access to food and water. Two days prior to the experiment, they were given restricted food if necessary to maintain the body weight Each rat received two surgeries: femoral vein cannulation for IV infusion and MCAO. During surgeries, the rat was anesthetized with 1.5% halothane delivered in oxygen via an inhalation mask. The body temperature was monitored and regulated at normothermic level using a homeothermic heating system. First, a catheter was inserted into the left femoral vein. Thirty minutes later, the rat was reanesthetized for MCAO surgery. The MCAO was achieved using the endovascular suture method described by Long et al., Stroke, Vol. 20, pp. 84-91 (1989). Specifically, the right external carotid artery (ECA) was exposed, coagulated and transected. A 3-0 monofilament nylon suture with a blunted tip and a coat of 0.05% Poly-1-Lysine was introduced into the proximal stump of the ECA via an arteriotomy. It was advanced 22 mm from the carotid bifurcation until it lodged in the proximal region of the anterior cerebral artery, thereby occluding the origin of the MCA. The rats were allowed to wake up; 2 hours later, the rats were reanesthetized for reperfusion, during which the nylon suture was retracted to the stump of the ECA allowing blood recirculation to the MCA.

With `O=C(O)CCC(CCCS)C(=O)O` (stereo not shown) [2-(3-sulfanylpropyl)pentanedioic acid] the “infarct size vs. vehicle treated rats” value was “significantly smaller infarct size”.

Same assay, conditions: TABLE IV(b); dose 10 mg/kg, 120 minutes post MCAO

With `O=C(O)CCC(CCCS)C(=O)O` (stereo not shown) [2-(3-sulfanylpropyl)pentanedioic acid] the “% Protect” value was 21%.

Same assay, conditions: TABLE IV(b); dose 30 mg/kg, 120 minutes post MCAO

For `O=C(O)CCC(CCCS)C(=O)O` (stereo not shown) [2-(3-sulfanylpropyl)pentanedioic acid], the “% Protect” value was 52%.

System: not listed separately
Assay: Example 14: each of the Examples and in vitro and in vivo assays described above
Settings: each of their respective assays and Examples

In the case of `CC(S)CC(CCC(=O)O)C(=O)O` (stereo not shown) [2-(2-sulfanylpropyl)pentanedioic acid], the “in vitro or in vivo activity” value is reported as “exhibit in vitro or in vivo activity”.
With `O=C(O)CCC(CCCS)C(=O)O` (stereo not shown) [2-(3-sulfanylpropyl)pentanedioic acid] the “in vitro or in vivo activity” value was “exhibit in vitro or in vivo activity”.

System: cortical cell cultures
Assay: in vitro assay of NAALADase inhibitors on ischemia in cortical cell cultures
Type: cell-based
Settings: concentration required to cause a 50% reduction in glutamate toxicity following an ischemic insult (potassium cyanide and 2-deoxyglucose)
Source text: Some results are set forth in U.S. Pat. Nos. 5,672,592, 5,795,877, 5,863,536, 5,880,112 and 5,902,817, allowed U.S. patent application Ser. Nos. 08/825,997, 08/833,628, 08/842,360 and 08/899,319 for which the issue fees have been paid, the entire contents of which patents and applications are herein incorporated by reference. Other results are provided below in TABLE III.

Going from `O=C(O)CCC(CP(=O)(O)CC(CCC(=O)O)C(=O)O)C(=O)O` (stereo not shown) to `O=C(O)CCC(CCSSCCC(CCC(=O)O)C(=O)O)C(=O)O` (stereo not shown) [2-[2-[(3,5-dicarboxypentyl)dithio]ethyl]pentanedioic acid], the EC50 rises from 0.04 nM to 17 nM (420-fold). The first is the more potent here.

Compared with `O=C(O)CCC(CC(S)c1ccccc1)C(=O)O` (stereo not shown) [2-(2-phenyl-2-sulfanylethyl)pentanedioic acid], `O=C(O)CCC(CP(=O)(O)CNc1ccccc1)C(=O)O` (stereo not shown) is 2.4-fold lower in EC50: 29 nM for the first, 12 nM for the second.

Going from `O=C(O)CCC(CP(=O)(O)CNS(=O)(=O)c1ccccc1)C(=O)O` (stereo not shown) to `O=C(O)CCC(CP(=O)(O)CNCc1ccccc1)C(=O)O` (stereo not shown), the EC50 falls from 792 nM to 0.9 nM (880-fold).

Going from `O=C(O)CCC(CCCCS)C(=O)O` (stereo not shown) [2-(4-sulfanylbutyl)pentanedioic acid] to `O=C(O)CCC(CCCS)C(=O)O` (stereo not shown) [2-(3-sulfanylpropyl)pentanedioic acid], the EC50 falls from 36 nM to 13 nM (2.8-fold).

Compared with `CC(CS)C(CCC(=O)O)C(=O)O` (stereo not shown) [2-(1-methyl-2-sulfanylethyl)pentanedioic acid], `CCC(CS)C(CCC(=O)O)C(=O)O` (stereo not shown) [2-(1-ethyl-2-sulfanylethyl)pentanedioic acid] is 2.3-fold lower in EC50: 141 nM for the first, 62 nM for the second. The second is the more potent here.

Going from `CC(C)(C)c1ccc(NCP(=O)(O)CC(CCC(=O)O)C(=O)O)cc1` (stereo not shown) to `Cc1ccc(NCP(=O)(O)CC(CCC(=O)O)C(=O)O)cc1` (stereo not shown), the EC50 falls from 35 nM to 11 nM (3.2-fold).

Compared with `CCCCC(S)CC(CCC(=O)O)C(=O)O` (stereo not shown) [2-(2-sulfanylhexyl)pentanedioic acid], `CC(CS)CC(CCC(=O)O)C(=O)O` (stereo not shown) [2-(3-sulfanyl-2-methylpropyl)pentanedioic acid] is 12-fold lower in EC50: 1000 nM for the first, 80 nM for the second.

First: COc1ccc(NCP(=O)(O)CC(CCC(=O)O)C(=O)O)cc1 (stereo not shown)
Second: O=C(O)CCC(CP(=O)(O)CNc1ccc(F)cc1)C(=O)O (stereo not shown)
The EC50 of the first is 3.3-fold higher: 10 nM for the first, 3 nM for the second. The second is the more potent here.

Going from `O=C(O)CCC(CP(=O)(O)CN1C(=O)c2ccccc2C1=O)C(=O)O` (stereo not shown) to `O=C(O)CCC(CP(=O)(O)C(NCc1ccccc1)c1ccccc1)C(=O)O` (stereo not shown), the EC50 falls from 13 nM to 1 nM (13-fold).

With `O=C(O)CCC(CP(=O)(O)CC(CCC(=O)OCc1ccccc1)C(=O)OCc1ccccc1)C(=O)O` (stereo not shown) the EC50 was 0.01 nM.
